Reference: ChEMBL document CHEMBL1201862, “PubChem BioAssay data set” (2004)
The source made the active and inactive calls.

Experiments:
[1] = THP-1 cell cytotoxicity, dose response, cytotoxicity control for non-replicating M. tuberculosis project (AID 489025); format: functional
[2] = cells; format: functional
[3] = Vero E6 cell cytotoxicity, dose response, cytotoxicity control for non-replicating M. tuberculosis project, secondary assay (AID 492998); format: functional, VeroE6; details: Vero C1008
[4] = biological target: DNA dC->dU-editing enzyme APOBEC-3G (Homo sapiens, UniProt Q9HC16); format: functional;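 further: Dose-response counterscreen measuring inhibition of APOBEC3G DNA deaminase activity, run while confirming APOBEC3A inhibitors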
[5] = biological target: DNA dC->dU-editing enzyme APOBEC-3A (Homo sapiens, UniProt P31941); assay: Dose Response confirmation of small molecule APOBEC3A DNA Deaminase Inhibitors via a fluorescence-based single-stranded DNA deaminase assay. [Related pubchem assays (depositor defined):AID493011, AID493024]; format: functional
[6] = biological target: T1, Corticotropin-releasing factor receptor 2/Corticotropin-releasing factor-binding protein (Homo sapiens, UniProt P24387+Q13324); assay: activators of CRF receptor 2 with binding protein – uHTS hits, confirmation (AID 602473); format: functional; details: read-out: EC50_Mean
T1 sequence (Q13324 whole entry): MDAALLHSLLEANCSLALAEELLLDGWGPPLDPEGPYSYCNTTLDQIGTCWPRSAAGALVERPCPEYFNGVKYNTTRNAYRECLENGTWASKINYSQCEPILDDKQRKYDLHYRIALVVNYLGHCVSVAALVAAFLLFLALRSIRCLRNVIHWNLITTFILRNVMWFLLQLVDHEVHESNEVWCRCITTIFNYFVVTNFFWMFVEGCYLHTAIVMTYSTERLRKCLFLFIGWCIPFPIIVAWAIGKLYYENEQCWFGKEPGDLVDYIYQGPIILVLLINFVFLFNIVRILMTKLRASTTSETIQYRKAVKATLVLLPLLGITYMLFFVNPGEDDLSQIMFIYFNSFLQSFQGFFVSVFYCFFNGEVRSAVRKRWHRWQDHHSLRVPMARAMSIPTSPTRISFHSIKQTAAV
T1 sequence (P24387 whole entry): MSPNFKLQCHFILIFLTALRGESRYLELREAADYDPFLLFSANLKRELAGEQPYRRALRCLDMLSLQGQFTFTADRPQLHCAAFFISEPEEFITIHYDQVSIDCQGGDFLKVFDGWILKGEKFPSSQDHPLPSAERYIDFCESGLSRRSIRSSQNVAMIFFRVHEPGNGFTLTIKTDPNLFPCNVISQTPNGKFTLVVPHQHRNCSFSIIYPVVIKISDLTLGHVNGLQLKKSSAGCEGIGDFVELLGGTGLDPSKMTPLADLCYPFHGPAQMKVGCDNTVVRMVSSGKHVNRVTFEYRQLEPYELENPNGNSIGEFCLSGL

[7] = biological target: T2, Short transient receptor potential channel 4 (Mus musculus, UniProt Q9QUQ5); assay: mouse TRPC4 channel activators, dose response, cell-based, HEK293 TRPC4/mu-opioid, Fluo-4 calcium (AID 434937); format: functional
T2 sequence (Q9QUQ5 whole entry): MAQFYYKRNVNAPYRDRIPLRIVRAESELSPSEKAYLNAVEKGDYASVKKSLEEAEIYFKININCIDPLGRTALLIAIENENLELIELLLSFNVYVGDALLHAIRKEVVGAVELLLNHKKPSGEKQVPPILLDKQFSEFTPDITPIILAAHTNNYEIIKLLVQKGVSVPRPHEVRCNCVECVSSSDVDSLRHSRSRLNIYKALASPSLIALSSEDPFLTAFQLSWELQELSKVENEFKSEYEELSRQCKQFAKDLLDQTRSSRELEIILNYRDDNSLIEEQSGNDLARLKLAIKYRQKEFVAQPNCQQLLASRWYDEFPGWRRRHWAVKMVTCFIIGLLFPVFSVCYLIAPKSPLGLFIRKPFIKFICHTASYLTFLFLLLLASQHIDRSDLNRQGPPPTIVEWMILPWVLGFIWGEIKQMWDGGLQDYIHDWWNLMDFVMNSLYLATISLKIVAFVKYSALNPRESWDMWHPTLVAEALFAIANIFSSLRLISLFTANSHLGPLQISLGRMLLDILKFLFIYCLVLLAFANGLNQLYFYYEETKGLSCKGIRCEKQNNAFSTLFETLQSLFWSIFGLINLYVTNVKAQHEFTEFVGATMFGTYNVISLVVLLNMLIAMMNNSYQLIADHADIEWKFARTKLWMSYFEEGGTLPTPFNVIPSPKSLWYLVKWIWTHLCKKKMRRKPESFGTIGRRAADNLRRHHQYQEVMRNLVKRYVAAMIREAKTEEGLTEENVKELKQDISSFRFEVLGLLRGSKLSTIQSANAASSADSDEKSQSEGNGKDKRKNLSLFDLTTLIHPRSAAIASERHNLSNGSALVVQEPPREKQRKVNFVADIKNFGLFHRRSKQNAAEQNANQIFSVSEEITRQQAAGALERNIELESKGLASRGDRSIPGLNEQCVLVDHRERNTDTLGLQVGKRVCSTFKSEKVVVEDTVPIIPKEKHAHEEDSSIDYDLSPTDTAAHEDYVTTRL

[8] = NIH-3T3 fibroblast cytotoxicity, dose response, cytotoxicity control, cell-based, fluorescence, Alamar Blue, secondary assay (AID 2327); format: functional;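 further: NIH-3T3 mouse fibroblasts cultured with fluconazole at 8 µg/mL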
[9] = system: HEK293; assay: NOD2 signaling inhibitors in MDP-stimulated cells, cell-based, uHTS, luminescence (AID 2001); format: functional; details: Homo sapiens
[10] = C. albicans growth with fluconazole, confirmation, fluorescence, retest (AID 2467); format: functional, cell-based
[11] = system: HEK293; assay: cells; format: functional, cell-based; details: Homo sapiens
[12] = biological target: Nucleotide-binding oligomerization domain-containing protein 2 (Homo sapiens, UniProt Q9HC29); assay: NOD2 signaling inhibitors, cell-based, luminescence, uHTS, HEK293 (AID 1566); format: functional
[13] = system: HEK293; assay: cells; format: functional, cell-based; details: Homo sapiens; remark: listed apart in the source
[14] = system: HEK293; assay: NOD1 signaling inhibitors, primary screen, cell-based, luminescence, uHTS (AID 1578); format: functional; details: Homo sapiens
[15] = system: HEK293; assay: cells; format: functional, cell-based; details: Homo sapiens; remark: listed apart in the source
[16] = biological target: Cytochrome P450 3A4 (Homo sapiens, UniProt P08684);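 further: CYP3A4 tested as one member of a cytochrome P450 panel screen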
[17] = biological target: T3, Aminopeptidase N (Plasmodium falciparum FcB1/Columbia, UniProt O96935); assay: P. falciparum M1AAP inhibitors, biochemical, fluorogenic H-Leu-NHMec substrate, 1536-well (AID 1445); design: species or system Plasmodium falciparum 3D7, 3D7
T3 sequence (O96935 whole entry): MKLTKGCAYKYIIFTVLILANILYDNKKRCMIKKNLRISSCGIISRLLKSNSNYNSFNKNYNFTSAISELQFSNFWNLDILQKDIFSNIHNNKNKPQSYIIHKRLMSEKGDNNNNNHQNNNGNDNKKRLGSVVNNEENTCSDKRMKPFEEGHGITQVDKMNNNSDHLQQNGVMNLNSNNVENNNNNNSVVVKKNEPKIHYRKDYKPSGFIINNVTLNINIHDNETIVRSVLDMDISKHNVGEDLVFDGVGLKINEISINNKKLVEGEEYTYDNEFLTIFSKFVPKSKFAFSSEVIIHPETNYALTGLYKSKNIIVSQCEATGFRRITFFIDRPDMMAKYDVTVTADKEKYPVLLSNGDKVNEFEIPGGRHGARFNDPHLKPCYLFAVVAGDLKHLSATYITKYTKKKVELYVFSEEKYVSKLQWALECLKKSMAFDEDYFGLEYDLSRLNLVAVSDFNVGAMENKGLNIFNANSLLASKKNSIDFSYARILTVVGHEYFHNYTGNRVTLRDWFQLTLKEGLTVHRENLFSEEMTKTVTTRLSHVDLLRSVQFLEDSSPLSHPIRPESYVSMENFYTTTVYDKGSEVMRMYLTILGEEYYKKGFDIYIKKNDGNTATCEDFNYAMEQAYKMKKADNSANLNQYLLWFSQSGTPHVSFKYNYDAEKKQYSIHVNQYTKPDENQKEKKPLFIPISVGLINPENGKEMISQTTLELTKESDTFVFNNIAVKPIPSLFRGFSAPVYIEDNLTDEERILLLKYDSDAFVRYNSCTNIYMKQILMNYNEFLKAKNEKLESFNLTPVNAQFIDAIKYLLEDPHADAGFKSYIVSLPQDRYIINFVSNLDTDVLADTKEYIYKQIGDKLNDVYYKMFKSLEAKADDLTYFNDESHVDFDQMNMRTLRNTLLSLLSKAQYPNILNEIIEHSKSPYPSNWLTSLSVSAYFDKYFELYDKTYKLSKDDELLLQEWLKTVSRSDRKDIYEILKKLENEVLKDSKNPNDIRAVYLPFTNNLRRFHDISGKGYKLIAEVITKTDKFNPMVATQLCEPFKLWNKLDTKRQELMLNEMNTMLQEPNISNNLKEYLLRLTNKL

[18] = biological target: T4, Leucine aminopeptidase (Plasmodium falciparum 3D7, UniProt Q8IL11); assay: P. falciparum M17LAP inhibitors, primary screen, biochemical, fluorogenic H-Leu-NHMec substrate, 1536-well (AID 1619); format: functional
T4 sequence (Q8IL11 whole entry): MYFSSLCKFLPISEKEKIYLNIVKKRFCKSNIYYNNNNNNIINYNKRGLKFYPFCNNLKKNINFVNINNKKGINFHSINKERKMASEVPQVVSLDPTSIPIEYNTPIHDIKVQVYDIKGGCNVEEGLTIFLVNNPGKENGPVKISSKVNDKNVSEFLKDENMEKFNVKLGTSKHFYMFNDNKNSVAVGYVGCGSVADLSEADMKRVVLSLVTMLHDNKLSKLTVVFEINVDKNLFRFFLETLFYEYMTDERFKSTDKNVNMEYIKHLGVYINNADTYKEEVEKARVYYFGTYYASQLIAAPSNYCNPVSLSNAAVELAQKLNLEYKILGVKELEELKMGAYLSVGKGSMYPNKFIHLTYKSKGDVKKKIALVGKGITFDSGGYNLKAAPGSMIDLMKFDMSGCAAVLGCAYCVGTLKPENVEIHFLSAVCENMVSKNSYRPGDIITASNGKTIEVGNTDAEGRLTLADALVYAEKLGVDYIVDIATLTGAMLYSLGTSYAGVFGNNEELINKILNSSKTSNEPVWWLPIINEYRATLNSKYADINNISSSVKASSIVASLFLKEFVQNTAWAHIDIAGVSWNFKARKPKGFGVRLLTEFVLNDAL

Chain of DNA dC->dU-editing enzyme APOBEC-3A (P31941 whole entry): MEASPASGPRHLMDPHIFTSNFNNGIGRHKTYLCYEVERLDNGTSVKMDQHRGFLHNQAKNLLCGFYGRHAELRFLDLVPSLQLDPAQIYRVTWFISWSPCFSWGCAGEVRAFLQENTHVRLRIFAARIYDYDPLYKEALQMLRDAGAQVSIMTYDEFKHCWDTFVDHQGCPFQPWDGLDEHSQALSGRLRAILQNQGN
Chain of DNA dC->dU-editing enzyme APOBEC-3G (Q9HC16 whole entry): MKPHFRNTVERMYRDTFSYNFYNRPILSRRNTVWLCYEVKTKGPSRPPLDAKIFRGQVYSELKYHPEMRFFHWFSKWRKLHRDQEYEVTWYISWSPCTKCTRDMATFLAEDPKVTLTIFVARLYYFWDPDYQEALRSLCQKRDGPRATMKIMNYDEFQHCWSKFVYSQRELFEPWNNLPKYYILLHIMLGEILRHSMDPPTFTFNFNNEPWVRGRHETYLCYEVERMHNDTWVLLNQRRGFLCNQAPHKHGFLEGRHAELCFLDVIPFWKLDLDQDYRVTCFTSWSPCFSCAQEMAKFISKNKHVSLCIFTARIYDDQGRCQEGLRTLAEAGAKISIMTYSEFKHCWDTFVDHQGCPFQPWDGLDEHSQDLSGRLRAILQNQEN
Chain of Cytochrome P450 3A4 (P08684 whole entry): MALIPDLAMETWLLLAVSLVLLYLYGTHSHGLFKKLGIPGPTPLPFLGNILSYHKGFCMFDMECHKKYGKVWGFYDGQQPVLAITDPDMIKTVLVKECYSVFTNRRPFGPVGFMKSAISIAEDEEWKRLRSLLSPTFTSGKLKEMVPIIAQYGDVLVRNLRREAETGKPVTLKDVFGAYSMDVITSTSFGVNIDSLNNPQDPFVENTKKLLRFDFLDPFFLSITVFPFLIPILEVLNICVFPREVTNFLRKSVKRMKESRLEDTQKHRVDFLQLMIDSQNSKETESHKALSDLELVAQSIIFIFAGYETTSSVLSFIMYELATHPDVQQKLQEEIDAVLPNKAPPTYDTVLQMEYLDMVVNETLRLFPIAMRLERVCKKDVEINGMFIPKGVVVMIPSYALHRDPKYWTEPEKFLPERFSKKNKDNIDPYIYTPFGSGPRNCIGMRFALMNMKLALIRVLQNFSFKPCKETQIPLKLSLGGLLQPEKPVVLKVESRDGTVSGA
Chain of Nucleotide-binding oligomerization domain-containing protein 2 (Q9HC29 whole entry, the tested form may be a part): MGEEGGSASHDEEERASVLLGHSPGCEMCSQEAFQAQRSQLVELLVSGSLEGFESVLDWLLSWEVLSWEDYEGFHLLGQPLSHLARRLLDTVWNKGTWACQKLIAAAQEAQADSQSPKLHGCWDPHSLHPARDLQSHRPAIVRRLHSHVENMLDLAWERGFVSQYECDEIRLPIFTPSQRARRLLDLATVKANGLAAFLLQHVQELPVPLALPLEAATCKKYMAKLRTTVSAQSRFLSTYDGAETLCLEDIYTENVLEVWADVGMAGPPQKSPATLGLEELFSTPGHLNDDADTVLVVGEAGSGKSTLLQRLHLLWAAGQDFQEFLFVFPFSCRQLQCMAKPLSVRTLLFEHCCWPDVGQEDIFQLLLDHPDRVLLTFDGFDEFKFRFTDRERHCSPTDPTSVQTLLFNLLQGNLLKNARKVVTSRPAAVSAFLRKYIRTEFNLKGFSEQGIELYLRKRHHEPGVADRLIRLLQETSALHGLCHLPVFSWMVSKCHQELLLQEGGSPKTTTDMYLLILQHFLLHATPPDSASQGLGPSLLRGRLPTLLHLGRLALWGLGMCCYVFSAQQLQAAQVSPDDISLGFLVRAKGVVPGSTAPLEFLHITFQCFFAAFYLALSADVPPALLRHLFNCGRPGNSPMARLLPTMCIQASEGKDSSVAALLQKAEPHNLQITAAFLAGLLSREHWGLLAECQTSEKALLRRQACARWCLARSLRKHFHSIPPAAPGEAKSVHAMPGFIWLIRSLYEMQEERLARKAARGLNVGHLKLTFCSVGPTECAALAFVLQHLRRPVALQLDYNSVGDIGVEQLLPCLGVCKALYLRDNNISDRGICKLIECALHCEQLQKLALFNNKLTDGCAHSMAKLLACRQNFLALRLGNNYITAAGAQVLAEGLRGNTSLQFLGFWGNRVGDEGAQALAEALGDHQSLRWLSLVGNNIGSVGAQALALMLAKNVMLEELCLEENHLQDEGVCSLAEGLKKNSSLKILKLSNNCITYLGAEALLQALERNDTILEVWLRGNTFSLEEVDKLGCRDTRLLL

SMILES: COc1cc(CNCCc2ccccc2)cc(Br)c1OCC(=O)Nc1ccccc1C
- CC50 [1]: 23.1 µM (active)
- IC50 [2]: 21.2 µM (active)
- CC50 [3]: 19.4 µM (active)

SMILES: CN1CCN(S(=O)(=O)c2cccc(C(=O)N3CCN(c4ccccc4F)CC3)c2)CC1
- IC50 [4]: 19.2 µM (active)
- IC50 [5]: 10.1 µM (active)

SMILES: CC1CN(C(=O)c2ccc(NS(=O)(=O)c3ccc(C(C)(C)C)cc3)cc2)CC(C)O1 (centres undefined)
- EC50 [6]: 15.7 µM (active)
- EC50 [7]: 5.96 µM (active)

SMILES: CC1=CC(C)(C)[N+](C)(C)c2ccccc21
- IC50 [4]: 2.98 µM (active)
- IC50 [5]: 2.6 µM (active)

SMILES: COc1ccc(-c2nn(-c3ccccc3C)cc2CNC(C)c2cn(C)nc2C)cc1F (centres undefined)
- EC50 [7]: 1.68 µM (active)

SMILES: Cc1nonc1C(=O)N/N=C/c1ccc([N+](=O)[O-])o1
- EC50 [8]: 30.2 µM (active)
- IC50 [9]: > 20 µM (inactive)
- EC50 [10]: 1.82 µM (active)
- IC50 [11]: > 20 µM (inactive)
- IC50 [2]: 8.02 µM (active)
- EC50 [12]: 10.9 µM (active)
- IC50 [13]: > 20 µM (inactive)
- EC50 [14]: 9.04 µM (active)
- IC50 [15]: > 20 µM (inactive)

SMILES: NC(N)=Nc1nc2ccc([N+](=O)[O-])cc2[nH]1
- AC50 [16]: inconclusive

SMILES: CCOc1cc(/C=N/NC(=O)c2cccs2)cc([N+](=O)[O-])c1O
- IC50 [17]: 103 µM (active)

SMILES: COc1ccc(/C=N/NC(=S)Nc2cccc(C(=O)O)c2)cc1
- IC50 [18]: 19.6 µM (active)

SMILES: COc1ccc(/C=N/NC2=NC(=O)C(CC(=O)O)S2)cc1OCc1ccc(Cl)cc1 (centres undefined)
- IC50 [17]: 66.7 µM (active)
- IC50 [18]: 20.3 µM (active)
